Consider one compound from EPA's ToxValDB 9.5 (doi:10.2903/j.efsa.2007.107r).

Series [1] relates to Apis mellifera. Conditions: acute; oral; unspecified; mortality.
The subject of series [2] is Colinus virginianus.
For series [3], the system named is Daphnia magna. Conditions: chronic/long-term; duration: 21 days.
Series [4] relates to Oncorhynchus mykiss.
The subject of series [5] is Oryctolagus sp. Conditions: developmental; development.
Series [6] concerns Rattus norvegicus.
Series [7] deals with Tagia sp. To be noted: acute; duration: 14 days; mortality.
Series [8] deals with Typhlodromus pyri. Description: LR50; higher = less toxic. Conditions: acute; duration: 7 days; reproduction.

Consider `CC(C)OC(=O)N[C@H](C(=O)N[C@H](C)c1nc2ccc(F)cc2s1)C(C)C` [Benthiavalicarb-isopropyl], for which the LD50 is greater than 100 µg/piece in series [1]; greater than 2000 mg/kg in series [2] (acute, oral, mortality); greater than 5000 mg/kg in series [6] (acute, oral, mortality). Besides, the LC50 in series [2] (acute, oral, diet, mortality) is greater than 937 mg/kg-day; in series [4] (acute, duration: 96 hours, mortality), greater than 10 µg/mL; in series [7], greater than 500 mg/kg. Also, in series [2] (reproduction developmental, duration: 24 weeks), the NOEL was determined as 105 mg/kg-day. The NOEC is 3 mg/L in series [3] and 1 mg/L in series [4] (chronic/long-term, duration: 28 days). For the same compound, the no-observed-adverse-effect level (NOAEL) was determined as 20 mg/kg-day in series [5]; 9.9 mg/kg-day in series [6] (chronic, duration: 2 years, clinical chemistry); 10 mg/kg-day in series [6] (reproduction developmental, organ weight). In series [8], this compound registered an LR50 of 290 g/ha.

The term NOAEL denotes the highest tested level that showed no adverse finding.
